Measured values as given in the supplement of paper PMC13380429.

Key:
Details in all cases: 72 h
U2OS [1] = experiment: cell viability relative to DMSO; higher = less toxic
Vero E6 [2] = experiment: as above
Caco-2 [3] = experiment: as above
Calu-3 [4] = experiment: as above
HepG2 [5] = experiment: as above
U2OS [6] = experiment: relative viability EC50 (midpoint between 100% and the lowest measured viability); higher = less toxic
Vero E6 [7] = experiment: as above
Calu-3 [8] = experiment: as above
U2OS [9] = experiment: drug sensitivity score (DSS) for viability; higher = more toxic; extreme values may be limits of the assay
Vero E6 [10] = experiment: as above
Caco-2 [11] = experiment: as above
Calu-3 [12] = experiment: as above
HepG2 [13] = experiment: as above
HepG2 [14] = experiment: relative viability EC50 (midpoint between 100% and the lowest measured viability); higher = less toxic

Compound	cell viability (U2OS [1]; 1 nM) [%]	cell viability (U2OS [1]; 10 nM) [%]	cell viability (U2OS [1]; 100 nM) [%]	cell viability (U2OS [1]; 1000 nM) [%]	cell viability (U2OS [1]; 10000 nM) [%]	cell viability (Vero E6 [2]; 1 nM) [%]	cell viability (Vero E6 [2]; 10 nM) [%]	cell viability (Vero E6 [2]; 100 nM) [%]	cell viability (Vero E6 [2]; 1000 nM) [%]	cell viability (Vero E6 [2]; 10000 nM) [%]	cell viability (Caco-2 [3]; 1 nM) [%]	cell viability (Caco-2 [3]; 10 nM) [%]	cell viability (Caco-2 [3]; 100 nM) [%]	cell viability (Caco-2 [3]; 1000 nM) [%]	cell viability (Caco-2 [3]; 10000 nM) [%]	cell viability (Calu-3 [4]; 1 nM) [%]	cell viability (Calu-3 [4]; 10 nM) [%]	cell viability (Calu-3 [4]; 100 nM) [%]	cell viability (Calu-3 [4]; 1000 nM) [%]	cell viability (Calu-3 [4]; 10000 nM) [%]	cell viability (HepG2 [5]; 1 nM) [%]	cell viability (HepG2 [5]; 10 nM) [%]	cell viability (HepG2 [5]; 100 nM) [%]	cell viability (HepG2 [5]; 1000 nM) [%]	cell viability (HepG2 [5]; 10000 nM) [%]	relative viability EC50 (U2OS [6]) [µM]	relative viability EC50 (Vero E6 [7]) [µM]	relative viability EC50 (Calu-3 [8]) [µM]	drug sensitivity score (U2OS [9])	drug sensitivity score (Vero E6 [10])	drug sensitivity score (Caco-2 [11])	drug sensitivity score (Calu-3 [12])	drug sensitivity score (HepG2 [13])	relative viability EC50 (HepG2 [14]) [µM]
C#Cc1cccc(Nc2ncnc3cc(OCCOC)c(OCCOC)cc23)c1 [erlotinib]	96.7	96.4	94.2	93.5	82.9	111	104	92	73.4	26.8	105	92.5	98.2	79.7	54.2	107	109	86.2	52	30.1	108	122	104	97.8	58.2	> 10	1.36	0.453	0.4	7.1	4.7	10.6	2.4	
N=C(N)NC(=O)c1nc(Cl)c(N)nc1N [amiloride]																													0	0		0	0	
CC(C)c1noc(N2CCC(COc3ccc(-c4ccc(S(C)(=O)=O)cc4)nc3)CC2)n1	99.3	94.1	97.6	100	101	98	100	98.8	89.3	103	92.5	93.5	101	95.6	72.5	96.4	101	92.4	94.4	106	97.1	106	109	97.3	50.9	> 10	> 10	> 10	0	0	1.8	0	2.9	
Cc1cccc(C)c1OCC(C)N (configuration not stated) [mexiletine]																													0	0		0	0.1	
C[C@H](N)[C@H](O)c1cccc(O)c1 [metaraminol]						105	101	108	97.5	102						90.4	96.8	98.7	99.9	91.9	97.9	102	100	97.2	103		> 10	> 10		0		0	0	> 10
CCC[C@@H]1C[C@@H](C(=O)N[C@@H]([C@H]2O[C@H](SC)[C@H](OP(=O)(O)O)[C@@H](O)[C@H]2O)[C@H](C)Cl)N(C)C1 [Clindamycin phosphate]																													0	0		0	0	
CC(C)c1cc2c(cc1S(=O)(=O)O)[C@@]1(C)CCC[C@@](C)(C(=O)O)[C@@H]1CC2 [ecabet]	96.7	93.7	99.1	95	103	96.4	96.1	96.9	96.9	107						109	107	112	110	99.5	105	110	93.8	112	104	> 10	> 10	> 10	0	0		0	0	> 10
COc1ccc(C(C)(C)C)cc1CN[C@H]1C2CCN(CC2)[C@H]1C(c1ccccc1)c1ccccc1 [maropitant]	99.5	98.9	101	93.9	67.3	100	106	100	101	62.6	103	96.4	101	103	67.4	108	104	110	101	1.7	107	104	98.9	100	11.6			3.24	2.5	1.7	1.3	5.4	4.9	3.17
C=CC(C)(C)c1cc(/C=C/C(=O)c2ccc(O)cc2)c(OC)cc1O [licochalcone-A]	95.7	96.5	100	95.8	88.7	103	101	90.2	98	102	92.4	83	105	88	70.8	96.1	100	106	98.1	91.7	99.9	100	74.4	99.2	78.4	> 10	> 10	> 10	0.1	0	2.8	0	1.5	
N[C@H](CO)C(=O)O [D-serine]																													0	0		0	0	
C=CC(=O)c1ccc2ccccc2c1 [JAK3-inhibitor-V]						99.5	107	99.8	104	101						110	97.3	111	94.8	96.6	106	108	98.8	110	110		> 10	> 10		0		0	0	> 10
C[C@]12CC[C@@H]3c4ccc(OC(=O)c5ccccc5)cc4CC[C@H]3[C@@H]1CC[C@@H]2O [estradiol-benzoate]	108	105	106	103	99.8											101	96.4	98.6	94.3	88.6	104	118	103	105	97.8	> 10		> 10	0			0	0	> 10
CCNC(=O)C[C@@H]1N=C(c2ccc(Cl)cc2)c2cc(OC)ccc2-n2c(C)nnc21 [I-BET-762]	94.7	101	90	87.9	47.8	98.1	104	104	59.9	15.9	94.8	100	88.6	91.3	72.8	104	116	104	93.7	60.8	111	112	98.8	64.9	50.2	1.69	1.04		4.5	9.8	2	3	6.9	
O[C@@H](COc1cccc2ncccc12)CN1CCN([C@@H]2c3ccccc3[C@@H]3[C@H](c4ccccc42)C3(F)F)CC1 [zosuquidar]	99	99.4	99.4	98.2	76.2	104	105	98.7	98.5	72.6	99.5	102	87.8	90.2	55.2	102	108	91.5	96.1	85.7	104	98.8	95.6	92.4	63.1	> 10		> 10	1.1	1.3	3.6	0.1	3	
N=C(N)N [guanidine]	105	106	105	99.9	108	76.8	106	82.2	110	69.3											101	117	101	96.2	105	> 10			0	0.9			0	> 10
